Earlier results in US11116745B2, “Prebiotic formulation” (Deep Cell Industries, Inc., priority 2018, dated 2021).

What was measured:
[1] = target: cannabinoid CB2 receptor (Homo sapiens, UniProt P34972)
[2] = not given; remark: listed apart in the source
[3] = system: enteric glial cells; settings: over active enteric glial cells

cannabinoid CB2 receptor, sequence (P34972 whole entry): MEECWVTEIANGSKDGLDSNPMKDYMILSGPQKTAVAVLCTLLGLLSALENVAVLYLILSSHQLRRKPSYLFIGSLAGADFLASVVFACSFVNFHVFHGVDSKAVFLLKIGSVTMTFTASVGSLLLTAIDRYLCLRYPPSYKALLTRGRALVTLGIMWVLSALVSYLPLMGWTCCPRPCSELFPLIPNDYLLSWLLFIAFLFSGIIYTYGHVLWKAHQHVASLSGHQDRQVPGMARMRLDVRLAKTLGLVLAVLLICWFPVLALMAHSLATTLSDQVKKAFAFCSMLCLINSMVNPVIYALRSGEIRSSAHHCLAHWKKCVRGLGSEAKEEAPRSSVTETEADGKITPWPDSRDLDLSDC

SMILES: C=C(C)[C@@H]1CCC(C)=C[C@H]1c1c(O)cc(CCCCC)cc1O [Cannabidiol]
- affinity for the cannabinoid CB2 receptor [1]: very low affinity
- oral bioavailability (absorption): 13-19%
- solubility [2]: low
- expression of S100B and iNOS proteins [3]: reduce
